What was measured:
A549 cells = test: Flow cytometry, lectin binding to A549 cells (glycosylation inhibitors, glycosidases); type: cell-based, human; details: for Percentage of inhibition of MAH binding (mean fluorescence intensity): MAH 5 μg ml^-1; for Percentage of inhibition of rPVL binding (mean fluorescence intensity): biotinylated rPVL 1 μg ml^-1
HBEC-3KT cell line = type: cell-based, human
M119 = test system: M119; parameters: key to the marks not given beside the values; details: M119, Melanoma
[1] = test system: glandular compartment of the stomach and small intestine; test: Labeling of healthy tissues by biotinylated rPVL; details: 100 mM GlcNAc
Procedure: Ethanol-fixed human trachea, esophagus, duodenal junction, jejunum, colon, pancreas, liver, ovary, uterus and vagina samples were obtained from organ donors. 18 tissue samples from 10 different individuals were used to prepare a tissue microarray (TMA) of healthy tissues.
The tissue sections were deparaffinized, then endogenous peroxidases were blocked by incubating the sections with PBS containing 3% hydrogen peroxide (v/v), for 5 mn. The sections were then blocked with BSA 5% (w/v) for 30 min at room temperature, followed by incubation with 0,7–1 μg ml^-1 biotinylated rPVL 1h at room temperature (Ethanol-fixed sections) or 2 μg ml^-1 of biotinylated rPVL in PBS at 4°C for 18h (for formalin-fixed sections). After washing the sections twice with PBS, an indirect biotin-streptavidin system and DAB (Ventana Medical Systems) or AEC (Vector laboratories) detection kits were used according to the manufacturer’s instructions. The developed slides were washed twice with PBS and counterstained with hematoxylin. After washing with water, the sections were dehydrated and mounted. Sections were observed under a BX41 microscope equipped with a DP-70 digital camera system (Olympus, Tokyo, Japan) or imaged with a NanoZoomer slide-scanner (Hamamatsu, Hamamatsu City).

CC(=O)OC1O[C@@H](C)[C@@H](OC(C)=O)[C@@H](OC(C)=O)[C@@H]1F (stereo partly shown) [2-FF, 2-fluoro-peracetyl fucose]
Percentage of inhibition of MAH binding (mean fluorescence intensity) (A549 cells; A549 cells grown 4 days with 400 μM 2-Fluoro-Fucose, listed as 2F-fucose): did not affect | Percentage of inhibition of rPVL binding (mean fluorescence intensity) (A549 cells; listed as 2F-fucose): did not affect

3-fluoro-peracetyl-neuraminic acid [3F-NeuAc]
Percentage of inhibition of MAH binding (mean fluorescence intensity) (A549 cells; A549 cells grown 4 days with 100 μM Fluoro-Neu5Ac): 75% | Percentage of inhibition of rPVL binding (mean fluorescence intensity) (A549 cells): 59%

CC(=O)N[C@@H]1[C@@H](O)[C@H](O)[C@@H](CO)O[C@H]1O [GlcNAc, N-acetylglucosamine]
inhibition of rPVL binding by GlcNAc (in words) (HBEC-3KT cell line): complete inhibition | Inhibtion by GlcNac (of PVL staining) (M119): ++ | inhibition of rPVL staining by GlcNAc (in words) [1]: partial inhibition

Reference: publication PMC4456360, “A Recombinant Fungal Lectin for Labeling Truncated Glycans on Human Cancer Cells” (PLoS ONE, 2015)
